Measured values reported in patent US20070049514A1, “Resonance modulator for diagnosis and therapy” (priority 2003, published 2007).
Where “and” joins values, the source holds several entries; their conditions need not be identical. Equal entries are not always repeated. Entries after “also recorded” stand apart in the source; their conditions may differ. Where two headings read alike, the source gives them in different places.

How the values were obtained:
[1] = tested on: malignant squamous cell cancer (SCCA-HM); test: BDP-DNP on squamous cell cancer with T-lymphocytes in tissue culture; type: cell-based
Excerpt: FIG. 15 describes the impact of BDP-DNP on cell growth for malignant squamous cell cancer (SCCA-HM) growing in culture (pre-post Rx). On the left are large lacey star shaped squamous 15 cancer cells associated with small white clumps of naïve T-lymphocytes. […] The dark background seen on the right is due to the color of the drug. All the fluffy white cells are large clumps of activated lymphocytes.

PTP CD45 receptor = biological target: T1, PTP CD45 receptor (Homo sapiens, UniProt P08575); test: Binding to and up-regulation of PTP CD45 receptor
T1 sequence (P08575 26-1306): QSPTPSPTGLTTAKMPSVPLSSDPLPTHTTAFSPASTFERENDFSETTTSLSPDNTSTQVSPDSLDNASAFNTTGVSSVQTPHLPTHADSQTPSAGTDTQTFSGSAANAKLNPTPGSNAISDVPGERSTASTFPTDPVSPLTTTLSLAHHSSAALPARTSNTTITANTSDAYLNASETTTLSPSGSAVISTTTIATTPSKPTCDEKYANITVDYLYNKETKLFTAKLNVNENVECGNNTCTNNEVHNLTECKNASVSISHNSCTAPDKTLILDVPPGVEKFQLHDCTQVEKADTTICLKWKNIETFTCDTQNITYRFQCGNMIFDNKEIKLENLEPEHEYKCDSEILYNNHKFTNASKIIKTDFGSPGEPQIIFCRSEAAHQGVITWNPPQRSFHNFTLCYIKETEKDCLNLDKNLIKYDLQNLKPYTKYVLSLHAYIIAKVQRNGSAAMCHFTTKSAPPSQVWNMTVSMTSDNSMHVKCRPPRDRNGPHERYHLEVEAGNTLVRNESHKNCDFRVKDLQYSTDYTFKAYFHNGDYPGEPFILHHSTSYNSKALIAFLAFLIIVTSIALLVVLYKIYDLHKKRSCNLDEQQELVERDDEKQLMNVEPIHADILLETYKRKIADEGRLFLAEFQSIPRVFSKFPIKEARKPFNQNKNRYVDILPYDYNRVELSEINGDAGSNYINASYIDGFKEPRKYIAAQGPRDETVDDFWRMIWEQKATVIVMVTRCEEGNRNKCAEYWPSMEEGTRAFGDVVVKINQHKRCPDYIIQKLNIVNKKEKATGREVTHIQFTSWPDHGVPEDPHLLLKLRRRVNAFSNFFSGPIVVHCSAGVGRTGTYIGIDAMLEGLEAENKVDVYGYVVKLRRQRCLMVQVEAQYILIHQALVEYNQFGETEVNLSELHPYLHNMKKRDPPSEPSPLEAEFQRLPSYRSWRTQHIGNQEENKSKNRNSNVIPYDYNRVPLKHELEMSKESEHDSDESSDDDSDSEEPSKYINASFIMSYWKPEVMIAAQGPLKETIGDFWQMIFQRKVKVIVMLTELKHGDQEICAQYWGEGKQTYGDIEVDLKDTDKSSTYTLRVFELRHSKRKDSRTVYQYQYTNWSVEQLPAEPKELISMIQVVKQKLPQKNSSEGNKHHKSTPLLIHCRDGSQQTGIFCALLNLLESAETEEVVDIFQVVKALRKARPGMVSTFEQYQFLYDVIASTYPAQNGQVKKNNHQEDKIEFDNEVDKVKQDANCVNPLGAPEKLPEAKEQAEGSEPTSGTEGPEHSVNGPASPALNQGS

lymphocytes in culture [2] = test: Lymphocyte blastogenesis, blasts per high powered field; type: cell-based; conditions: number of blasts per high powered field
Protocol: (§1) Once candidates have been selected as potential resonance modulators, they can be easily assayed to determine whether they induce lymphocyte blastogenesis and activate lymphocytes. Such an assay is found in Morgan et al., Anticancer Research 13:1763-1768 (1993), which is incorporated by reference. See also Janossy et al., Clin. Exp. Immunol. 14:581-596 (1973). Briefly, uptake of [^3]thymidine was measured for lymphocytes in culture. Lymphocytes were cultured in RPMI-1640 tissue culture medium supplemented with 10% fetal bovine serum (FBS). Following stimulation with the resonance modulator, tritiated thymidine (2-20 μCi/ml, specific activity 2 Ci/mmol) was added to the cells and incubated with them. The uptake of [^3]thymidine was stopped by the addition of cold 10% trichloroacetic acid after a selected period of time, and the radioactivity of the samples measured in a scintillation counter. The % lymphoblast was determined by counting the number of blasts per high powered field (hpf) while % activation was determined by uptake of the tritiated thymidine. The increase voltage was measured with an oscilloscope as in Example 7.

lymphocytes in culture [3] = test: Lymphocyte activation, tritiated thymidine uptake; type: cell-based; conditions: uptake of tritiated thymidine
Protocol: as §1

[4] = tested on: Cutaneous Metastases (cancer lesions); test: Phase I/II trials, topical A-007 0.25% gel on cutaneous metastases; type: in vivo, human
[5] = tested on: T-lymphocytes (CD4+, CD3+, CD8+, CD45+) and CD11c+ dendritic cells in skin; test: Histochemical assays of biopsies of human skin topically treated with A-007; type: in vivo
[6] = tested on: naive human lymphocytes (obtained from peripheral blood); test: Aggregation of naive lymphocytes around an A-007 crystal in tissue culture; type: cell-based; conditions: 0.5 mg crystals in RPMI, one hour
Excerpt: The ability of an agent to induce aggregation of naïve lymphocytes in culture around a test agent is another factor to be considered in determining whether the agent is a resonance modulator suitable for use in the methods disclosed herein. The ability to induce aggregation within one hour is a particularly strong indication that the compound is suitable for further investigation. “Aggregation” refers to a substantial increase in the number of lymphocytes, such as an increase visible by microscopy, as in FIG. 5.

lymphoma = test: A-007 gel on the skin of a patient with lymphoma; type: in vivo, human; conditions: 0.25% gel (0.5 g)
[7] = tested on: cervical early cancer-in-situ; test: A-007 gel in cervical cancer-in-situ (single patient); type: in vivo, human; conditions: 0.25% gel (2 g) daily for 5 days
Excerpt: The responses are associated with increased organization of T-lymphocyte patterns and disappearance of cancer cells.

HPV = test: A-007 0.25% gel intravaginally, HPV response (titers); type: in vivo, Humans; design: key: NC: no change; conditions: per patient, intravaginal gel
[8] = tested on: T-lymphocytes (CD markers); test: A-007 0.25% gel intravaginally, T-cell profile (tissue/blood); type: in vivo, Humans; design: key: NC: no change; conditions: per patient; intravaginal gel
[9] = tested on: anal squamous cell cancer; test: A-007 0.25% gel intra-anally, cancer response and toxicity; type: in vivo, human; conditions: per patient
[10] = tested on: T-lymphocytes (CD markers); test: A-007 0.25% gel intra-anally, T-cell profile (tissue/blood); type: in vivo, human; design: key: NC: no change; conditions: intra-anal gel
HeLa cancer cells (HPV+) = test: HeLa cancer cells incubated with A-007 crystals; type: cell-based; conditions: incubated with crystals for 24 hours
Excerpt: Then through cell membrane chemical interphase and modulation of the PTP receptors the cells down regulate, darken with pyknotic changes associated with DNA agglutination resulting in death (lower clumped dark staining cells). The attraction that the crystals have for the cells is associated with intramolecular resonance and associated magnetic patterns described in FIGS. 3 and 4.

[11] = tested on: benign fibroblasts or healthy epithelial cells; test: A-007 induced cell death in non-HPV cells; type: cell-based; conditions: cells not containing or transformed by HPV
CD45+ receptor = CD45+ receptor modulation in lymphocytes and dendritic cells; type: cell-based, human
Excerpt: CD45+ is expressed on dendritic cells, lymphocytes, monocytes, and leukocytes, as well as some neoplastic cells, as a protein tyrosine phosphatase (TP), which together with other members of the PTPs, are responsible for […] tyrosine residues. Blockade of the CD45+ receptor sites with anti-CD45 antibodies inhibits T-cell activation and prevents mitogen (lectin) activation of naïve T-cells. CD45+ receptor surfaces contain arginine, serine/threonine and cysteine moieties, which can bind to and/or transfer natural ligands to the surface of APCs, as well as hydrolyze tyrosyl phosphates. […] Different resonance states of A-007 are capable of interacting with different immune cells.

[12] = as seen by crystallography (Klein et al. 1993); cited from earlier work
[13] = tested on: vaginal cancer / cervical cancer; test: A-007 0.25% gel intravaginally, cancer response and toxicity; conditions: per patient
[14] = Absorption and disposition of A-007 (blood detection, skin absorption, excretion)
[15] = 0.4 mcg/mL, 24 hours incubation
[16] = 53 people treated with topical 0.25% gel
[17] = Breast, 0.25% gel topically twice daily

O=[N+]([O-])c1ccc(NN=C2C(=Cc3ccccc3)CCCC2=Cc2ccccc2)c([N+](=O)[O-])c1 [Compound 38, 2,6-Dibenzylidenecyclohexanone-2,4-dinitrophenylhydrazone]
cancer cells after treatment [1, 15]: No cancer cells are detected
effect on naïve T-lymphocytes in the culture [1, 15]: impressive stimulation
immune modulating anticancer activities vs. A-007 ([1]; relative to A-007): 100 fold
binding affinities to PTP CD45 receptor (PTP CD45 receptor): improved binding affinities
effect on PTP CD45 receptor (PTP CD45 receptor): upregulates the receptor
binding affinities to PTP CD45 receptor (PTP CD45 receptor; listed as structure 38): excellent binding affinities
% Lymphoblast (lymphocytes in culture [2]): 100%
% Activation (lymphocytes in culture [3]): 100%

O=[N+]([O-])c1ccc(NN=C(c2ccc(O)cc2)c2ccc(O)cc2)c([N+](=O)[O-])c1 [Compound A-007, 4,4′-dihydroxybenzophenone-2,4-dinitrophenylhydrazone]
complete responses (number) [4, 16]: ten
objective remissions [4, 16]: 37%
Duration ([4]; Angiosarcoma): 0 wks
Response: number NR ([4]; Angiosarcoma): 2 NR
Toxicities ([4]; Angiosarcoma): 0
Duration ([4]; Anogenital): 1.8+ yrs
Response: number CR ([4]; Anogenital): 5
Response: number PR ([4]; Anogenital): 2
Toxicities ([4]; Anogenital): 0
Toxicities (number, skin, mild) ([4]; Breast): 7 skin (mild)
Response: number CR [4, 17]: 5
Response: number PR [4, 17]: 7
Response: number stable [4, 17]: 6 stable
Duration ([4]; H/N (Sq. Cell)): 0 wks
Toxicities ([4]; H/N (Sq. Cell)): 0
Duration ([4]; KS (Kaposi's sarcoma)): 11 wks
Response: number NR ([4]; KS (Kaposi's sarcoma)): 2 PR, 2 NR
Response: number PR ([4]; KS (Kaposi's sarcoma)): 2 PR, 2 NR
Toxicities ([4]; KS (Kaposi's sarcoma)): 0
Duration ([4]; Melanoma): 3-15 wks
Response: number NR ([4]; Melanoma): 3
Toxicities (number, skin, mild) ([4]; Melanoma): 2 Skin (mild)
Response: number PR ([4]; Melanoma, 0.25% gel topically twice daily): 1
Duration ([4]; NHL): 3.5 yrs
Toxicities ([4]; NHL): 0
Response: number PR ([4]; NHL (non-Hodgkins' lymphoma)): 1 PR
local or systemic toxicity ([4]; topical A-007): substantial absence of A-007 induced local or systemic toxicity
T-lymphocyte infiltrates (CD4+, CD3+, CD8+, CD45+) in treated skin ([5]; biopsies during topical treatment): increased infiltrates
CD11c+ dendritic cell infiltrates in treated skin ([5]; treated areas): Increased skin infiltrates
aggregation of lymphocytes around crystal [6]: lymphocytes and dendritic cells aggregate around the crystal or pellet
peripheral lymphocyte profile (total lymphocyte count) (lymphoma): improvement
duration of cure [7]: over one year
response of cervical carcinoma-in-situ (biopsy) [7]: disappearance of the cancer cells; also recorded: loss of malignant changes
HPV (Response), changes in HP titers (HPV): +(50%)
HPV (Response), changes in HP titers (HPV; CR as in Table 1): +(NC)
T-Cell Profile (Tissue/Blood) CD8/4+ [8]: NC
Response (Cancer) ([9]; gel intra-anally daily for five days): 0% (4×) and 100%
Toxicity ([9]; intra-anal gel): None
T-Cell Profile (Tissue/Blood) All others ([10]; patient A-3): NC
T-Cell Profile (Tissue/Blood) CD4/8 ([10]; patient A-5): NC
T-Cell Profile (Tissue/Blood) CD45+ ([10]; per patient): (NC)
effect on HeLa cancer cells (HeLa cancer cells (HPV+)): undergo necrobiosis and death; also recorded: undergo pyknosis (DNA agglutination and necrosis) and die
A-007 induced cell death [11]: not observed
% Lymphoblast (lymphocytes in culture [2]): 75%
% Activation (lymphocytes in culture [3]): 100%
inhibition of CD45+ (CD45+ receptor): does not inhibit or block CD45+
CD45+ and CD11c+ receptors in human peripheral dendritic cells (CD45+ receptor; A-007-activated DCs): up-regulating both CD45+ and CD11c+ receptors
hydrogen bond donors [12]: greater than 5
Response (Cancer) ([13]; 2 g gel intravaginally daily for five days): 75% and >75%
Toxicity ([13]; intravaginal gel): None
excretion ([14]; administered to a human subject): excreted substantially unchanged
absorption from/through the skin ([14]; applied to skin, animal and human studies): not absorbed from the skin; also recorded: substantially not absorbed through the skin
absorption into the blood ([14]; in vivo): not absorbed into the blood
detection of A-007 in blood ([14]; subjects treated with topical A-007): not been detected in the blood

O=C1c2ccccc2C(=NNc2ccc([N+](=O)[O-])cc2[N+](=O)[O-])c2ccc(O)c(O)c21 [DNPA, 10-[(2,4-dinitrophenyl)hydrazono]-1,2-dihydroxy-10H-anthracen-9-one]
% Lymphoblast (lymphocytes in culture [2]): 50%
% Activation (lymphocytes in culture [3]): 75%

CC(C)C(=O)Nc1ccc([N+](=O)[O-])c(C(F)(F)F)c1 [Fludamide, reference compound]
% Lymphoblast (lymphocytes in culture [2]): 0%
% Activation (lymphocytes in culture [3]): 0%
